Source: patent publication US20040156869A1, “2-substituted quinazolin-4-ylamine analogues” (Neurogen Corporation, priority 2002, published 2004)
pKi: −log10 of the molar value.

Target: human capsaicin receptor (VR1) (Homo sapiens, UniProt Q8NER1)
Test: Capsaicin receptor binding assay ([3H]RTX competition, VR1-transfected HEK293 membranes)

Sequence of human capsaicin receptor (VR1) (Q8NER1 whole entry): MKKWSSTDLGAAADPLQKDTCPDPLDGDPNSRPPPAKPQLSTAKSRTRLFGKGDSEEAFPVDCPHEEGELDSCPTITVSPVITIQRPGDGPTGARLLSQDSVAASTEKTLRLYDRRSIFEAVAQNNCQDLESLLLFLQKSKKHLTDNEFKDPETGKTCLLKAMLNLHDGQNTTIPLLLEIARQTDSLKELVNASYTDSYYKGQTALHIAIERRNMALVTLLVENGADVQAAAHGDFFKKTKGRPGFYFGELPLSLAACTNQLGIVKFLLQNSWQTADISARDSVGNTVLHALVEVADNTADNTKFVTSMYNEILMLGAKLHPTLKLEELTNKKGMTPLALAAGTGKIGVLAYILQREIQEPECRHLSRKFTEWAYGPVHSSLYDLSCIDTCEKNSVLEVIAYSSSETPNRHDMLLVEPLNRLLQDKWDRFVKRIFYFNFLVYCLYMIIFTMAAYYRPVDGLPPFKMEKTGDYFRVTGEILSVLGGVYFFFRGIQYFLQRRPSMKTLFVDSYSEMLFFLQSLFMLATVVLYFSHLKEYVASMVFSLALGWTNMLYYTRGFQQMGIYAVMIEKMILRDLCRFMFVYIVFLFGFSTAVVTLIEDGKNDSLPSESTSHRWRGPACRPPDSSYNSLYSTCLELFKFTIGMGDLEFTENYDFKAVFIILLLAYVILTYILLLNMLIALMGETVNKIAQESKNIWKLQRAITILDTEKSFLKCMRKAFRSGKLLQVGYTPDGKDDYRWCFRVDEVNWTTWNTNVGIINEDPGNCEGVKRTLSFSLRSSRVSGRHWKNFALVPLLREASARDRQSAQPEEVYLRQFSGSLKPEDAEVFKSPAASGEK

pKi	SMILES
> 6.00	Cc1cccnc1-c1ccc2c(Nc3ccc(C(F)(F)F)cc3)nc(C(=O)O)nc2n1 [Compound 205, 7-(3-Methyl-pyridin-2-yl)-4-(4-trifluoromethyl-phenylamino)-pyrido[2,3-d]pyrimidine-2-carboxylic acid]
> 6.00	O=C(O)c1nc(Nc2ccc(C(F)(F)F)cc2)c2ccc(-c3ncccc3C(F)(F)F)nc2n1 [Compound 206, 4-(4-Trifluoromethyl-phenylamino)-7-(3-trifluoromethyl-pyridin-2-yl)-pyrido[2,3-d]pyrimidine-2-carboxylic acid]
> 6.00	Cc1cccnc1-c1ccc2c(Nc3ccc(C(C)(C)C)cc3)nc(C(=O)O)nc2n1 [Compound 207, 4-(4-tert-Butyl-phenylamino)-7-(3-methyl-pyridin-2-yl)-pyrido[2,3-d]pyrimidine-2-carboxylic acid]
> 6.00	COCc1nc(Nc2ccc(C(C)(C)C(C)=O)cc2)c2ccc(-c3ncccc3C(F)(F)F)nc2n1 [Compound 208, 3-{4-[2-Methoxymethyl-7-(3-trifluoromethyl-pyridin-2-yl)-pyrido[2,3-d]pyrimidin-4-ylamino]-phenyl}-3-methyl-butan-2-one]
> 6.00	COCc1nc(Nc2ccc(C(C)(C)C(C)=O)cc2)c2ccc(-c3ncccc3C)nc2n1 [Compound 212, 3-{4-[2-Methoxymethyl-7-(3-methyl-pyridin-2-yl)-pyrido[2,3-d]pyrimidin-4-ylamino]-phenyl}-3-methyl-butan-2-one]
> 6.00	COCc1nc(Nc2ccc(C(C)(C)C(C)=O)cc2)c2ccc(-c3ncccc3Cl)nc2n1 [Compound 213, 3-{4-[7-(3-Chloro-pyridin-2-yl)-2-methoxymethyl-pyrido[2,3-d]pyrimidin-4-ylamino]-phenyl}-3-methyl-butan-2-one]
> 6.00	CC(C)(C)c1ccc(Nc2nc(C(C)(C)CO)nc3cc(-c4ncccc4C(F)(F)F)ccc23)cc1 [Compound 217, 2-[4-(4-tert-Butyl-phenylamino)-7-(3-trifluoromethyl-pyridin-2-yl)-quinazolin-2-yl]-2-methyl-propan-1-ol]
> 6.00	CC(C)(CO)c1nc(Nc2ccc(C(F)(F)F)cc2)c2ccc(-c3ncccc3C(F)(F)F)cc2n1 [Compound 218, 2-Methyl-2-[4-(4-trifluoromethyl-phenylamino)-7-(3-trifluoromethyl-pyridin-2-yl)-quinazolin-2-yl]-propan-1-ol]
> 6.00	CCOC(=O)c1nc(Nc2ccc(C(C)(C)C)cc2)c2ccc(-c3ncccc3C(F)(F)F)nc2n1 [Compound 219, 4-(4-tert-Butyl-phenylamino)-7-(3-trifluoromethyl-pyridin-2-yl)-pyrido[2,3-d]pyrimidine-2-carboxylic acid ethyl ester]
> 6.00	CC(C)(C)c1ccc(Nc2nc(C(=O)O)nc3nc(-c4ncccc4C(F)(F)F)ccc23)cc1 [Compound 220, 4-(4-tert-Butyl-phenylamino)-7-(3-trifluoromethyl-pyridin-2-yl)-pyrido[2,3-d]pyrimidine-2-carboxylic acid]
> 6.00	CCN(CC)C(=O)C(C)(C)c1ccc(Nc2nc(COC)nc3nc(-c4ncccc4C(F)(F)F)ccc23)cc1 [Compound 221, N,N-Diethyl-2-{4-[2-methoxymethyl-7-(3-trifluoromethyl-pyridin-2-yl)-pyrido[2,3-d]pyrimidin-4-ylamino]-phenyl}-isobutyramide]
> 6.00	CCOCc1nc(Nc2ccc(C(F)(F)F)cc2)c2ccc(-c3ncccc3C(F)(F)F)nc2n1 [Compound 223, [2-Ethoxymethyl-7-(3-trifluoromethyl-pyridin-2-yl)-pyrido[2,3-d]pyrimidin-4-yl]-(4-trifluoromethyl-phenyl)-amine]
> 6.00	CCOCc1nc(Nc2ccc(C(F)(F)F)nc2)c2ccc(-c3ncccc3C(F)(F)F)nc2n1 [Compound 224, [2-Ethoxymethyl-7-(3-trifluoromethyl-pyridin-2-yl)-pyrido[2,3-d]pyrimidin-4-yl]-(6-trifluoromethyl-pyridin-3-yl)-amine]
> 6.00	CCOCc1nc(Nc2ccc(C(C)(C)C#N)cc2)c2ccc(-c3ncccc3C(F)(F)F)nc2n1 [Compound 225, 2-{4-[2-Ethoxymethyl-7-(3-trifluoromethyl-pyridin-2-yl)-pyrido[2,3-d]pyrimidin-4-ylamino]-phenyl}-2-methyl-propionitrile]
> 6.00	CCN(CC)CC(C)(C)c1ccc(Nc2nc(COC)nc3nc(-c4ncccc4C)ccc23)cc1 [Compound 227, [4-(2-Diethylamino-1,1-dimethyl-ethyl)-phenyl]-[2-methoxymethyl-7-(3-methyl-pyridin-2-yl)-pyrido[2,3-d]pyrimidin-4-yl]-amine]
> 6.00	COC(=O)[C@@H](OCc1nc(Nc2ccc(C(C)(C)C)cc2)c2ccc(-c3ncccc3C(F)(F)F)cc2n1)C(C)C [Compound 228, 2-[4-(4-tert-Butyl-phenylamino)-7-(3-trifluoromethyl-pyridin-2-yl)-quinazolin-2-ylmethoxy]-3-methyl-butyric acid methyl ester (S)]
> 6.00	C[C@@H](OCc1nc(Nc2ccc(C(C)(C)C)cc2)c2ccc(-c3ncccc3C(F)(F)F)cc2n1)C(=O)O [Compound 229, (R)-2-[4-(4-tert-Butyl-phenylamino)-7-(3-trifluoromethyl-pyridin-2-yl)-quinazolin-2-ylmethoxy]-propionic acid (chiral)]
> 6.00	CC(C)[C@H](OCc1nc(Nc2ccc(C(C)(C)C)cc2)c2ccc(-c3ncccc3C(F)(F)F)cc2n1)C(=O)O [Compound 230, (S)-2-[4-(4-tert-Butyl-phenylamino)-7-(3-trifluoromethyl-pyridin-2-yl)-quinazolin-2-ylmethoxy]-3-methyl-butyric acid]
> 6.00	CCOCc1nc(Nc2ccc(C(C)C(F)(F)F)cc2)c2ccc(-c3ncccc3C(F)(F)F)nc2n1 (centres unmarked) [Compound 231, [2-Ethoxymethyl-7-(3-trifluoromethyl-pyridin-2-yl)-pyrido[2,3-d]pyrimidin-4-yl]-[4-(2,2,2-trifluoro-1-methyl-ethyl)-phenyl]-amine]
> 6.00	CC(C)[C@@H](OCc1nc(Nc2ccc(C(C)(C)C)cc2)c2ccc(-c3ncccc3C(F)(F)F)cc2n1)C(=O)O [Compound 234, 2-[4-(4-tert-Butyl-phenylamino)-7-(3-trifluoromethyl-pyridin-2-yl)-quinazolin-2-ylmethoxy]-3-methyl-butyric acid (R)]
> 6.00	COCc1nc(Nc2ccc(C(F)(F)F)cc2)c2ccc(-c3nccnc3Cl)nc2n1 [Compound 235, [7-(3-Chloro-pyrazin-2-yl)-2-methoxymethyl-pyrido[2,3-d]pyrimidin-4-yl]-(4-trifluoromethyl-phenyl)-amine]
> 6.00	COCc1nc(Nc2ccc(C(C)(C)C)cc2)c2ccc(-c3nccnc3Cl)nc2n1 [Compound 236, (4-tert-Butyl-phenyl)-[7-(3-chloro-pyrazin-2-yl)-2-methoxymethyl-pyrido[2,3-d]pyrimidin-4-yl]-amine]

SMILES	pKi
CC(=O)C(C)(C)c1ccc(Nc2nc(COCC(C)C)nc3nc(-c4ncccc4C)ccc23)cc1 [Compound 209, 3-{4-[2-Isobutoxymethyl-7-(3-methyl-pyridin-2-yl)-pyrido[2,3-d]pyrimidin-4-ylamino]-phenyl}-3-methyl-butan-2-one]	> 6.00
CC(=O)C(C)(C)c1ccc(Nc2nc(COCC(C)C)nc3nc(-c4ncccc4Cl)ccc23)cc1 [Compound 210, 3-{4-[7-(3-Chloro-pyridin-2-yl)-2-isobutoxymethyl-pyrido[2,3-d]pyrimidin-4-ylamino]-phenyl}-3-methyl-butan-2-one]	> 6.00
CC(=O)C(C)(C)c1ccc(Nc2nc(COCC(C)C)nc3nc(-c4ncccc4C(F)(F)F)ccc23)cc1 [Compound 211, 3-{4-[2-Isobutoxymethyl-7-(3-trifluoromethyl-pyridin-2-yl)-pyrido[2,3-d]pyrimidin-4-ylamino]-phenyl}-3-methyl-butan-2-one]	> 6.00
CC(C)COCc1nc(Nc2ccc(S(C)(=O)=O)cc2)c2ccc(-c3ncccc3C(F)(F)F)nc2n1 [Compound 214, [2-Isobutoxymethyl-7-(3-trifluoromethyl-pyridin-2-yl)-pyrido[2,3-d]pyrimidin-4-yl]-(4-methanesulfonyl-phenyl)-amine]	> 6.00
COCC(C)(C)c1ccc(Nc2nc(COCC(C)C)nc3nc(-c4ncccc4C)ccc23)cc1 [Compound 215, [2-Isobutoxymethyl-7-(3-methyl-pyridin-2-yl)-pyrido[2,3-d]pyrimidin-4-yl]-[4-(2-methoxy-1,1-dimethyl-ethyl)-phenyl]-amine]	> 6.00
Cc1cccnc1-c1ccc2c(Nc3ccc(S(C)(=O)=O)cc3)nc(COCC(C)C)nc2n1 [Compound 216, [2-Isobutoxymethyl-7-(3-methyl-pyridin-2-yl)-pyrido[2,3-d]pyrimidin-4-yl]-(4-methanesulfonyl-phenyl)-amine]	> 6.00
CCN(CC)C(=O)C(C)(C)c1ccc(Nc2nc(COCC(C)C)nc3nc(-c4ncccc4C)ccc23)cc1 [Compound 222, N,N-Diethyl-2-{4-[2-isobutoxymethyl-7-(3-methyl-pyridin-2-yl)-pyrido[2,3-d]pyrimidin-4-ylamino]-phenyl}-isobutyramide]	> 6.00
CC(C)COCc1nc(Nc2ccc(S(C)(=O)=O)cc2)c2ccc(-c3ncccc3Cl)nc2n1 [Compound 226, [7-(3-Chloro-pyridin-2-yl)-2-isobutoxymethyl-pyrido[2,3-d]pyrimidin-4-yl]-(4-methanesulfonyl-phenyl)-amine]	> 6.00
CC(C)COCc1nc(Nc2ccc(C(C)C(F)(F)F)cc2)c2ccc(-c3ncccc3C(F)(F)F)nc2n1 (centres unmarked) [Compound 232, [2-Isobutoxymethyl-7-(3-trifluoromethyl-pyridin-2-yl)-pyrido[2,3-d]pyrimidin-4-yl]-[4-(2,2,2-trifluoro-1-methyl-ethyl)-phenyl]-amine]	> 6.00
CC(C)COCc1nc(Nc2ccc(C(C)C(F)(F)F)cc2)c2ccc(-c3ncccc3Cl)nc2n1 (centres unmarked) [Compound 233, [7-(3-Chloro-pyridin-2-yl)-2-isobutoxymethyl-pyrido[2,3-d]pyrimidin-4-yl]-[4-(2,2,2-trifluoro-1-methyl-ethyl)-phenyl]-amine]	> 6.00
